The values below come from patent publication US9856273B2, “ETP derivatives” (priority 2012, dated 2018).

The subject of one data set is p53 tumor suppressor. The data set can be described thus: Western blot, induction of p53. In kind it is cell-based, human. The conditions noted are these: A2058, DU145, A549 and SKOV3 cells (SKOV3 cells do not express p53 protein). On the procedure: (§1) Induction of p16, p53, p21waf1 and p27 (FIGS. 8 and 9): Western blot analyses were performed with specific antibodies. Briefly, human A2058 melanoma, DU145 prostate, A549 non-small lung and SKOV3 ovarian cancer cells were treated with ETP69. Whole-cell lysates (40 […]g) were resolved by SDS-PAGE. Primary specific antibodies to p53, p21^WAF1, p27(Kip1), p16 and Actin were diluted in PBS (pH 7.5) with 5% (w/v) nonfat milk and 0.1% (v/v) Tween-20 over night at 4° C. Horseradish peroxidase-conjugated secondary antibodies were incubated in PBS (pH 7.5) with 5% (w/v) nonfat milk and 0.1% (v/v) Tween-20 for 1 h at room temperature. Positive immuno-reactive proteins were detected using the ECL system (Pierce, Rockford, Ill.).

The next data set concerns H3K9 trimethylation. The data set can be described thus: Western blot of histone H3 (trimethyl K9) in A2058 melanoma cells. In kind it is cell-based, human. Here is the method: as §1, with “Western” for “Induction of p16, p53, p21waf1 and p27 (FIGS. 8 and 9): Western”, “[…]g) or histone extracts (10 […]g)” for “[…]g)”, “histone H3” for “p53, p21^WAF1, p27(Kip1), p16”, “histone H3 (trimethyl K9) were incubated in PBS (pH 7.5) with 0.1% (v/v) Tween-20 and 5% (w/v) BSA with gentle agitation overnight at 4° C. Other specific antibodies” for “Actin”

The subject of a further data set is p16 tumor suppressor. The data set can be described thus: Western blot, induction of p16. Type of data set: cell-based, human. The conditions noted are these: DU145 prostate cancer cells and A2058 melanoma cells. Here is the method:
as §1

The test system of data set [1] is Panc1 pancreatic cancer cells. The data set can be described thus: Senescence assay (senescence-associated beta-galactosidase activity). In kind it is cell-based. Conditions: 5 days, compared to DMSO. On the procedure: Senescence Assay: Panc1 cells were seeded at a density of 3×10^4 cells per well in a 24-well plate. The cells were then treated with 100 nM ETP69 or 0.3% DMSO (vehicle control). Panc-1 and SU.86.86 cells expressing SUV39H1 shRNA or a non-targeting (NT) control shRNA were also seeded in 24-well plates at a density of 3×10^4 cells/well and 5×10^4 cells/well, respectively. After 5 days, cells were washed with PBS, fixed with 3% formaldehyde/PBS, and stained over night at 37° C. with a freshly prepared staining solution (1 mg/ml 5-bromo-4-chloro-3-indolyl b-D-galactoside in 40 mM citric acid/sodium phosphate, pH 6.0, 5 mM potassium ferrocyanide, 5 mM potassium ferricyanide, 150 mM NaCl, 2 mM MgCl2). The blue stain indicates senescence-associated β-galactosidase activity. Photographs were taken with a 100× or a 20× objective under brightfield illumination using an INFINITY2 digital CCD camera (Lumenera, Canada) mounted on a Nikon Eclipse TS100 inverted microscope.

Data set [2] concerns HCC38 triple negative breast cancer cells. The data set can be described thus: Cell viability assay. Type of data set: cell-based.
A further data set deals with p53. The experiment in a line: QPCR of p53 expression in Panc1 cells. In kind it is cell-based. Conditions: 100 nM-500 nM. An excerpt: QPCR: Total RNA was isolated from cells using the RNeasy kit (Qiagen). The Tetro cDNA kit (Bioline) and SensiFast Probe kit (Bioline) were used to reverse-transcribe and amplify total RNA according to the manufacturer's protocol. The ProbeFinder software (Roche Applied Science) was used to design the primer sets for SUV39H1, p53 and GAPDH and to select the respective probes from the Universal ProbeLibrary (Roche Applied Science). Probe #13 and the following primers were used for the SUV39H1 assay: 5′ […] (SEQ ID NO: 1) and 5′ […] (SEQ ID NO:2). Probe #21 and the following primers were used for the p53 assay: 5′ […] (SEQ ID NO:3) and 5′ […] (SEQ ID NO:4). Probe #60 and the following primers were used for the GAPDH assay: 5′ agccacatcgctcagacac (SEQ ID NO:5) and 5′ gcccaatacgaccaaatcc (SEQ ID NO:6). All samples were run in triplicates. Amplifications were performed on a Bio-Rad CFX96 Touch Multiple-Color Real-time PCR Detection System. The data were normalized to the GAPDH expression and the relative expression levels were calculated using the 2^−ΔΔCt method.

Data set [3] deals with A2058 melanoma SQ xenografts. Type of data set: in vivo, mouse. The conditions noted are these: A2058 xenograft, 20 mg/kg IP once daily for 13 days. On the procedure:
In Vivo Xenograft Procedures for Lung Cancer, Melanoma, and Ovarian Cancer (See FIGS. 15A, 15B, 16A, 16B, 17A, 17B, 18A and 18B): Human A2058 melanoma cells (3×10^6) were resuspended in serum-free RPMI1640 medium and subcutaneously injected into the flank of 5-6 weeks old Athymic female nude mouse (NCI). When palpable tumor sizes reached at approximately 100 mm^3, mice were divided into two groups (vehicle=5, treatment=5). Then, ETP69 was administered with intraperitoneal (IP) injection at 20 mg/kg with vehicle (10% DMSO+0.5% Teen 20+89.5% saline), once daily for 13 days. Tumor volumes were calculated by the formula 1/2a×b^2, where a is the long diameter, and b is the short diameter. Tumor volumes correlate with tumor weights. The statistical significance of group differences was analyzed using a Student's t-test with the two-tailed distribution. P values less than 0.05 were considered statistically significant.

Data set [4] relates to A549 lung cancer SQ xenografts. Type of data set: in vivo, mouse. Conditions: A549 xenograft, 10 mg/kg orally once daily for 31 days. On the procedure:
Human A549 non-small lung cancer cells (5×10^6) were resuspended in serum-free DMEM medium and Matrigel (ration of 1:1) and subcutaneously injected into the flank of 5-6 weeks old female NOD/SCID/IL-2rg(ko)(NSG). When palpable tumor sizes reached at approximately 50 mm^3, mice were divided into two groups (vehicle=10, treatment=10). Then, ETP69 was orally administered at 10 mg/kg with vehicle (10% DMSO+30% Solutol+60% saline), once daily for 31 days. Tumor volumes were calculated by the formula 1/2a×b^2, where a is the long diameter, and b is the short diameter. Tumor volumes correlate with tumor weights. The statistical significance of group differences was analyzed using a Student's t-test with the two-tailed distribution. P values less than 0.05 were considered statistically significant.

Some results are limits rather than exact numbers.

For the compound `CN1C(=O)[C@@]23C[C@](C)(C#N)[C@H](c4ccc5c(c4)OCO5)N2C(=O)[C@]1(C)SS3` (racemic) [ETP69, Rac-(3S,6S,7S,8aS)-6-(Benzo[d][1,3]dioxol-5-yl)-2,3,7-trimethyl-1,4-dioxohexahydro-6H-3,8a-epidithiopyrrolo[1,2-a]pyrazine-7-carbonitrile], in the data set with p53 tumor suppressor, the “induction of p53” value is recorded as “induces”. Moreover, in the data set with H3K9 trimethylation, the “inhibition of H3K9 trimethylation” value is “inhibition”. In addition, the “induction of p16 tumor suppressor” value in the data set with p16 tumor suppressor was “induces”. Besides, the senescence-associated beta-galactosidase activity result in data set [1] is on record as “increased senescence-associated beta-galactosidase activity”. In data set [2], the viability inhibition entry was “viability inhibition”. Moreover, the “up-regulation of p53” value with p53 is on record as not below 3 fold. Moreover, in data set [3], the toxicity symptoms result is recorded as “no observable toxicity symptoms”, the tumor volume entry is recorded as “decreased” and the tumor weight entry is listed as “decreased”. In addition, in data set [4], the toxicity symptoms entry is given as “no observable toxicity symptoms”, the tumor volume entry is “decreased” and the tumor weight result is “decreased”.
